Measurements from patent publication US8193235B2, “Compositions and methods for establishing and maintaining stem cells in an undifferentiated state” (University of Kansas, priority 2009, dated 2012).
Entries after “also recorded” stand apart in the source; their conditions may differ.

Experiments:
R1 ES cells = R1 ES cells without LIF and MEF feeder; format: cell-based, mouse
Experimental: R1 ES Cells. R1 Cells were maintained on MEF feeder in ES-IMDM media supplemented with 15% ES-cell quality serum, 10^5 U/100 ml of LIF. Cells were grown for 3-5 days with change of medium every day. For inducing differentiation in monolayer culture and to determine the effect of Gö6983, cells were cultured at feeder-free condition and without LIF for 7 days.

PKC ζ = target: T1, PKC ζ (Mus musculus, UniProt Q02956); assay: Western blot analysis of p-PKC ζ in ES cells; format: cell-based
T1 construct: endogenous in cells; host or cells: mouse ES cells (E14)
Experimental: Western Blot Analysis. Whole cell lysates were prepared in SDS-gel loading buffer and resolved by 10% PAGE. The antibodies used for this study included β-actin Clone AC-15 from Sigma; p-STAT3 (Tyr705), p-p44/42 MAPK (tyr202/tyr204), p44/42 MAPK, GSK3β, Phospho Akt (Ser473), Akt, p-NFκβ p65 (Ser536), c-Myc, p-c-Myc (Thr58/Ser62), p-p90RSK (Thr359/Ser363), RSK1, Suz12 (D39F6), and Ezh2 (AC22) from Cell Signaling Technology; STAT3 (C-20), Oct-4 (C-10), Nanog (M-149), PKC α (C-20), PKC βI (C-16), PKC βII (C-18), PKC γ (C-19), PKC δ (C-20), PKC ζ (c-20), p-PKC ζ (Thr 410)-R, p-NFκβ p65 (ser311), and RelA (p65) from Santa Cruz Biotechnology; p-LGL1/LGL2 (S650/S654), SSEA4and H3K4Me3 from Abcam; LGL2 (M06), clone 4G2 from Abnova; β-Catenin from BD Transduction Laboratories, and H3K27Me3 and H3K9Me3 from Millipore.

C57BL/6 blastocysts = assay: Chimera generation and germ-line transmission by blastocyst injection; format: in vivo, mouse
Experimental: Chimera Generation and Germ-Line Transmission. Prepubertal (3 weeks of age) donor C57BL/6 female mice (Jackson Laboratory, Bar Harbor, Me.) were superovulated, mated overnight to intact C57BL/6 stud males and euthanized by cervical dislocation on day 3.5. Uteri were collected after euthanasia and flushed with M2 medium (Millipore, Bilerica, Mass.) for the collection of blastocysts. Eight to ten ES or iPS cells were injected into the blastocoel of each blastocyst. After injection, the blastocysts were surgically transferred into recipient females that were pseudopregnant by mating with vasectomized males. Recipient females carried the pups to term and nursed until weaning at three weeks. High-level chimeras, generated from newly derived ES cells, were mated with C57BL/6 adult mice to test for germline transmission.

GSK-3α or GSK-3β = assay: GSK3 phosphorylation in mESCs; format: cell-based, mouse
Experimental: E14 ES Cell Cultures. Cells were grown in ES-IMDM media (Lonza, Walkersville, Md.) in a feeder-free condition. ES-IMDM was supplemented with 15% serum, 10^5 U/100 ml of LIF (ESGRO, Millipore, Calif.) and 0.0124% monothioglycerol (MTG; Sigma Aldrich). Cells were grown for 3-5 days with change of medium every day. For inducing differentiation in monolayer culture and to determine the effect of Gö6983 in preventing differentiation, E14 cells were cultured on gelatin-coated plastics for 8 days without LIF. Details of experiments performed at clonal-density are described herein. To maintain E14 cells with Gö6983, serum supplemented ES-IMDM was used in the presence of 5 μM Gö6983 and was passed after every 3-5 days. For all assays involving elucidation of different signaling mechanism responsible for maintenance of pluripotency, cells from a ˜70% confluent ES culture plate were washed two times with 1× phosphate-buffered saline (PBS), trypsinized and plated on a 6-well tissue culture plate and treated with or without LIF or Gö6983 or different inhibitors for ˜10 hours followed by preparation of protein lysates and RNA. The PKCζ knocked-down E14 cells that were generated in this study were maintained in serum supplemented ES-IMDM on gelatin-coated plates in the absence of Gö6983 or LIF or any other inhibitor and passed after 3-5 days. […]

[1] = tested on: canonical Wnt reporter (TOPFLASH reporter); assay: TOPFLASH luciferase reporter assay; format: cell-based, mouse; conditions: mESCs
Experimental: TOPFLASH Luciferase Reporter Assay. […] were transfected with 0.5 μg of SUPER8XTOPFlash and 20 ng of phRL Renilla luciferase vectors per well using LIPOFECTAMINE (Invitrogen). Transfected cells were cultured with or without LIF, or Wnt3a-conditioned medium, or with Gö6983, and luciferase activity was measured after 48 hours of transfection using Dual-Luciferase Reporter Assay System (Promega).

[2] = tested on: human ES cells (H9 cells); assay: Human ES cells in feeder-free culture, MEF-conditioned medium; format: cell-based
DCIS.com cells = assay: Mamosphere formation of breast cancer cells; format: cell-based
Experimental: In addition to ES and iPS cells, it was determined whether blockade of PKC signaling facilitated the propagation of cancer stem cells. To that end, mamosphere formation of a breast cancer cell type known as DCIS.com was analyzed. Mamospheres are specialized structures formed by breast cancer cell types and are indicative of presence and propagation of breast cancer stem cells. […] Therefore, blockade of PKC signaling can be used to efficiently propagate and expand cancer stem cells.

Eed−/− ES cells = Eed−/− ES cells on collagen IV without LIF
Excerpt: Eed^−/− ES Cells. Eed^−/− ES cells, passage 4, were maintained in same medium as mentioned for Ezh2^−/− cells but supplemented with extra LIF (2000 U/ml) to suppress spontaneous differentiation.

T1 sequence (Q02956 whole entry): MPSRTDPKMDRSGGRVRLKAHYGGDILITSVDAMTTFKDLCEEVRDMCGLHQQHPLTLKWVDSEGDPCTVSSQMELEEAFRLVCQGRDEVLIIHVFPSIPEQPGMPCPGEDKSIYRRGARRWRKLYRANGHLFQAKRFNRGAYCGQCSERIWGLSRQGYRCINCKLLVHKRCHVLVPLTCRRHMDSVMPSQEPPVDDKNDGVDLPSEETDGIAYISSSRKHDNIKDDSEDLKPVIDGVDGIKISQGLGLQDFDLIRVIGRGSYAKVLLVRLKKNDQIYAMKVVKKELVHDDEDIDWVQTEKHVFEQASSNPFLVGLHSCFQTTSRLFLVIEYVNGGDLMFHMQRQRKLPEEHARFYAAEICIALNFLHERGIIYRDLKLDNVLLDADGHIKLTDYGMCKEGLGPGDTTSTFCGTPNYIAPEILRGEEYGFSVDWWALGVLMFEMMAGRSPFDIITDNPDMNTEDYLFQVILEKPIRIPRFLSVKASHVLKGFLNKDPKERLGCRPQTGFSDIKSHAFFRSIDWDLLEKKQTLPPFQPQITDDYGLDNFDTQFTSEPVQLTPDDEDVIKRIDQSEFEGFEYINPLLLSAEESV

**Q.** `COc1ccc2c(c1)c(C1=C(c3c[nH]c4ccccc34)C(=O)NC1=O)cn2CCCN(C)C` [Gö6983, 3-[1-[3-(dimethylamino)propyl]5-methoxy-1H-indol-3-yl]-4-(1H-indol-3-yl)-1H-pyrrole-2,5-dione] was tested. Which “maintenance of undifferentiated R1 ES cells” value (R1 ES cells) did it give?
**A.** replaced the requirement of LIF and MEF

**Q.** What about the “PKC ζ phosphorylation in ES cells” value (PKC ζ) of the same molecule?
**A.** almost completely inhibited

**Q.** And the “chimera generation from E14 ES cells maintained with Gö6983” value (C57BL/6 blastocysts; 7 passages with Gö6983, injected into C57Bl/6 blastocysts)?
**A.** yielded multiple chimeric mice; also recorded: efficiently generated chimeras

**Q.** And the “Chimera #” value (C57BL/6 blastocysts; E14 cells, 59 blastocysts injected, 7 pups)?
**A.** 5

**Q.** And the “# of Chimera showing Germline Transmission” value (C57BL/6 blastocysts; ES 1 (line derived with Gö6983))?
**A.** 3

**Q.** And the “Chimera #” value (C57BL/6 blastocysts; ES 1 (line derived with Gö6983), 45 blastocysts injected, 15 pups)?
**A.** 5

**Q.** And the “# of Chimera showing Germline Transmission” value (C57BL/6 blastocysts; ES 2 (line derived with Gö6983))?
**A.** 2

**Q.** And the “Chimera #” value (C57BL/6 blastocysts; ES 2 (line derived with Gö6983), 38 blastocysts injected, 6 pups)?
**A.** 2

**Q.** What about the “Chimera #” value (C57BL/6 blastocysts; iPSC 1, 18 blastocysts injected, 5 pups) of the same molecule?
**A.** 3

**Q.** What about the “Chimera #” value (C57BL/6 blastocysts; iPSC 2, 30 blastocysts injected, 6 pups) of the same molecule?
**A.** 3

**Q.** And the “chimera generation from Gö6983-derived iPS cells” value (C57BL/6 blastocysts; injected into blastocysts)?
**A.** generate chimeric mice

**Q.** And the “chimera and germline contribution of Gö6983-derived ES cells” value (C57BL/6 blastocysts; two lines after six passages, chimeras crossed with C57BL/6 adults)?
**A.** successfully generated adult chimera, which produced germline offsprings

**Q.** What about the “phosphorylation of GSK-3α or GSK-3β” value (GSK-3α or GSK-3β) of the same molecule?
**A.** did not significantly change

**Q.** And the TOPFLASH reporter activity [1]?
**A.** did not induce

**Q.** What about the “undifferentiated morphology and SSEA4 expression of human ES cells” value ([2]; MEF-conditioned medium, multiple passages) of the same molecule?
**A.** maintained their undifferentiated morphology and expression of pluripotency marker

**Q.** And the “SSEA4 expression in H9 colonies” value ([2]; versus TeSR1 medium or conditioned medium with bFGF, FIG. 5)?
**A.** sustained high levels of SSEA4 expression; also recorded: comparable

**Q.** What about the “Oct4 protein expression in human ES cells” value ([2]; versus conditioned medium alone) of the same molecule?
**A.** High levels of Oct4 protein expression

**Q.** What about the mamosphere formation (DCIS.com cells) of the same molecule?
**A.** efficiently generated mamospheres

**Q.** And the “colony morphology and pluripotency markers of Eed−/− cells” value (Eed−/− ES cells; collagen IV without LIF)?
**A.** largely maintained undifferentiated colony morphology and expression of pluripotency markers

**Q.** What about the “expression of developmental regulator genes in Eed−/− cells” value (Eed−/− ES cells; in the presence of Gö6983) of the same molecule?
**A.** significantly induced
